Test results as given in patent publication US20220193386A1, “MICRONEEDLE ARRAYS FOR CANCER THERAPY APPLICATIONS” (University of Pittsburgh - Of the Commonwealth System of …, priority 2014, published 2022).

Columns and labels:
epidermal cells = conditions: pyramidal CMC-microneedle arrays, 5 mg/g of CMC, arrays removed after 5 minutes, 72 hours of exposure
Method: Cytoxan® was integrated at a concentration of 5 mg/g of CMC, enabling delivery of approximately about 140 μg per array. This is a therapeutically relevant concentration based on the area of skin targeted, yet well below levels associated with systemic toxicities. Living human skin organ cultures were used to assess the cytotoxicity of Cytoxan®. Cytoxan® was delivered by application of arrays to skin explants as we previously described. Arrays and residual material were removed 5 minutes after application, and after 72 hours of exposure, culture living skin explants were cryo-sectioned and fixed. Apoptosis was evaluated using green fluorescent TUNEL assay (In Situ Cell Death Detection Kit, TMR Green, Roche, cat #:11-684-795-910).

B16 melanoma = B16 melanoma model: MNA treatment of established cutaneous tumors, tumor growth and survival; conditions: MNAs once weekly for three weeks, established B16 skin tumors; for tumor growth: vs untreated; for survival: untreated 100% mortality, through day 70
Method: The B16 melanoma model was used as a model tumor to test these novel approaches.
B16 skin tumors were established in normal mice by injection. Visible established cutaneous tumors were treated once weekly for three weeks with MNAs containing either doxorubicin alone, Poly(I:C) alone, or doxorubicin and Poly(I:C) incorporated into the same MNA. […] Tumor growth and survival were measured regularly for the duration of the study.

human skin = assay: Apoptosis and necrosis in human skin at the doxorubicin MNA dose; conditions: MNA dose of doxorubicin chosen for the B16 study
OVA = assay: OVA-specific CTL activity in vivo after CMC-microneedle array immunization; set-up: species or system mice; conditions: pyramidal CMC-microneedle arrays on mouse ears, 5 minutes, boosted one week later
Source text: To directly evaluate the immunogenicity of CMC microneedle array incorporated antigens, the well characterized model antigen ovalbumin was used. Pyramidal arrays were fabricated incorporating either soluble ovalbumin (sOVA), particulate ovalbumin (pOVA), or arrays containing both pOVA along with CpGs. The adjuvant effects of CpGs are well characterized in animal models, and their adjuvanticity in humans is currently being evaluated in clinical trials.
Immunization was achieved by applying antigen containing CMC-microneedle arrays to the ears of anesthetized mice using a spring-loaded applicator as described above, followed by removal of the arrays 5 minutes after application. These pyramidal microneedle arrays contained about 5 wt % OVA in CMC and about 0.075 wt % (20 μM) CpG. As a positive control, gene gun based genetic immunization strategy using plasmid DNA encoding OVA was used.
Mice were immunized, boosted one week later, and then assayed for OVA-specific CTL activity in vivo. […] It is well established that similar responses require substantially higher doses of antigen when delivered by traditional needle injection.
To evaluate the stability of fabricated arrays, batches of arrays were fabricated, stored, and then used over an extended period of time. […]

Compound | tumor growth (B16 melanoma) | survival (B16 melanoma) [%] | OVA-specific CTL activity in vivo (OVA) | further results
O=P1(N(CCCl)CCCl)NCCCO1 (centres unmarked) [Cytoxan®, cyclophosphamide] |  |  |  | apoptosis of epidermal cells (TUNEL) (epidermal cells): extensive apoptosis of epidermal cells
COc1cccc2c1C(=O)c1c(O)c3c(c(O)c1C2=O)C[C@@](O)(C(=O)CO)C[C@@H]3O[C@H]1C[C@H](N)[C@H](O)[C@H](C)O1 [doxorubicin] | slowed tumor growth | 30 |  | apoptosis / necrosis in human skin (human skin): induces apoptosis in human skin without causing necrosis
Poly(I:C) | slowed tumor growth | 50 |  | 
particulate OVA: particulate ovalbumin model antigen incorporated in pyramidal CMC microneedle arrays |  |  | Significant OVA-specific CTL activity | 
soluble OVA: soluble ovalbumin model antigen incorporated in pyramidal CMC microneedle arrays |  |  | Significant OVA-specific CTL activity | 
